Source: article PMC9196629, “Synthesis, Characterization and Antitumor Mechanism Investigation of Heterometallic Ru(Ⅱ)-Re(Ⅰ) Complexes” (Frontiers in Chemistry, 2022)

What was measured:
[1] = system: A549 (human lung cancer cells); assay: MTT cytotoxicity assay; format: cell-based; conditions: 48 h incubation, mean ± SD
Procedure: (§1) The anticancer activities of RuRe-1 and RuRe-2 against four cancer cell lines: HeLa (human cervical cancer cells), HepG2 (human hepatocellular carcinoma), A549 (human lung cancer cells), A549R (cisplatin-resistant A549) and one normal cell line LO2 (human normal liver cells) were determined by 3-(4,5-dimethylthiazole)-2,5-diphenyltetraazolium bromide (MTT) assay, while the mononuclear complexes Ru-1, Ru-2, Re-1 and cisplatin were selected as controls. […] And the in vitro antiproliferative efficacies of the compounds against HeLa cells were in the following order: RuRe-2 > RuRe-1 > Re-1 > cisplatin > Ru-1 > Ru-2. […] The anticancer activity of the mononuclear rhenium complex Re-1 was between 5.6 μM and 8.0 μM, which contributed the most to the antitumor activities of the heteronuclear Ru(II)-Re(Ⅰ) metal complexes.
(§2) Cell lines and culture conditions. HeLa, HepG2, A549, A549R and LO2 cells were purchased from Nanjing KeyGen Biotech., and cultured in DMEM or RPMI 1640 complete medium at 37 ℃ with 5% CO2 atmosphere.
(§3) In vitro cytotoxicity assay. The anti-tumor activity of mononuclear complexes Ru-1, Ru-2, Re-1 and heteronuclear RuRe-1 and RuRe-2 were determined by MTT (5 mg/mL) assay. Cells were placed in 96-well plates and cultured for 24 h at 37 ℃ in a 5% CO2 incubator. After replacing the culture medium with fresh medium containing RuRe-1 or RuRe-2 at the indicated concentration, cells were cultured for 48 h. 20 μL MTT was added to each well 4 h before the end of the incubation. Subsequently, the liquid in the cell wells was poured out and 150 μL/well DMSO was added to dissolve the MTT-formazan crystals. The absorbance of living cells at 570 nm was detected.

[2] = system: HeLa (human cervical cancer cells); assay: MTT cytotoxicity assay; format: cell-based; conditions: 48 h incubation, mean ± SD
Procedure: as §1, §2, §3

[3] = system: HepG2 (human hepatocellular carcinoma); assay: MTT cytotoxicity assay; format: cell-based; conditions: 48 h incubation, mean ± SD
Procedure: as §1, §2, §3

[4] = system: LO2 (human normal liver cells); assay: MTT cytotoxicity assay; format: cell-based; conditions: 48 h incubation, mean ± SD
Procedure: as §1, §2, §3

[5] = system: A549R (cisplatin-resistant A549); assay: MTT cytotoxicity assay; format: cell-based, human; conditions: MTT, 48 h incubation, mean ± SD
Procedure: as §1, §2, §3

[6] = system: HeLa, HepG2, A549, A549R cancer cell lines; assay: MTT cytotoxicity assay, summary over the cell lines screened; format: cell-based, human; conditions: 48 h
Procedure: as §1
as §3, with “Subsequently, the liquid in the cell wells was poured out and 150 μL/well DMSO was added to dissolve the MTT-formazan crystals.” left out

| SMILES | IC50 [1] [µM] | IC50 [2] [µM] | IC50 [3] [µM] | IC50 [4] [µM] | IC50 [5] [µM] | antitumor activity against all cancer cell lines screened [6] |
| --- | --- | --- | --- | --- | --- | --- |
| N.N.[Cl][Pt][Cl] [Cisplatin, reference compound] | 25.9 ± 0.8 | 19.3 ± 0.5 | 23.5 ± 2 | 22.5 ± 2 | 90.3 ± 0.3 | – |
| F[P-](F)(F)(F)(F)F.F[P-](F)(F)(F)(F)F.[Ru+2].c1ccc(-c2ccccn2)nc1.c1ccc(-c2ccccn2)nc1.c1cnc2c(c1)c1nc(-c3ccncc3)[nH]c1c1cccnc12 [Ru-1, reference compound] | > 50 | 39.8 ± 0.6 | > 50 | > 50 | > 50 | negligible antitumor activity |
| F[P-](F)(F)(F)(F)F.F[P-](F)(F)(F)(F)F.c1cc2ccc3ccc[n+]4c3c2[n+](c1)[Ru-4]412([n+]3cccc4ccc5ccc[n+]1c5c43)[n+]1cccc3c4nc(-c5ccncc5)[nH]c4c4ccc[n+]2c4c31 [Ru-2] | > 50 | 43.6 ± 1.2 | > 50 | > 50 | > 50 | negligible antitumor activity |
